Results: article PMC10600239, “Selective MCL-1 inhibitor ABBV-467 is efficacious in tumor models but is associated with cardiac troponin increases in patients” (Communications Medicine, 2023)
Where “and” joins values, the source holds several entries; their conditions need not be identical. Identical values can stand only once.

Tested on: AMO-1 xenografts
Assay: AMO-1 xenograft efficacy (tumor volume, body weight); on Mortality Observation Day 34: key: EUTV: Euthanized: tumor volume
Assay type: in vivo, mouse
Parameters: key to Anti-tumor Activity vs. AMO-1 (DSMZ), Median / Anti-tumor Activity vs. AMO-1 (DSMZ), individual animal / Anti-tumor Activity vs. AMO-1 (DSMZ), Mean: tumor volume in mm^3 (length × width^2/2)
Description: All animal studies were conducted in accordance with the guidelines approved by the Institutional Animal Care and Use Committees of AbbVie. The research protocol was approved by In Vivo Pharmacology at AbbVie prior to study initiation but was not publicly registered or disclosed. Female C.B-17 SCID-beige mice (AMO-1, OPM-2, NCI-H929, and OCI-AML2 xenografts) and female NSG mice (MV4-11-Red.Fluc systemic) were purchased from Charles River Laboratories (Wilmington, MA). Animals were housed in a light cycle-controlled room with HEPA filtration at 22 °C. Animals had nesting and climbing cage topper as the primary environmental enrichment. Animals were inoculated subcutaneously in the right flank with 5 × 10^6 (AMO-1, OPM-2, NCI-H929, and OCI-AML2) or intravenous (IV) with 5 × 10^6 (MV4-11-Red.Fluc). The inoculation volume (0.2 mL) comprised a 50:50 mixture of cells in growth media and Matrigel (BD Biosciences) for subcutaneous injections and 100% phosphate-buffered saline for IV administration. All cell lines used in this publication were authenticated using IDEXX for STR profiling as well as their IMPACT and human IMPACT panels for pathogen screening. Electronic calipers were used to measure the length and width of each tumor 2 to 3 times per week. Tumor volume was estimated by applying the following equation: volume = length × width^2/2. All groups remained blinded during measurements and dosing; only veterinary staff were aware of group identity. When tumors reached approximately 200 mm^3, mice were randomized by match and distributed into treatment and control groups. All xenograft trials were conducted using 5 to 10 mice per group, and all mice were ear tagged and monitored individually throughout the studies. […] Tumor burden in the systemic MV4-11-Red.Fluc experiment was measured using an IVIS® spectrum from PerkinElmer by taking the total photon flux of the entire dorsal side of an individual mouse. […] A background control mouse that was tumor naive but received D-Luciferin was placed in the upper left corner of each image. The total flux from this animal was subtracted from the total flux of each animal present in the image.
For in vivo studies, maximal tumor growth inhibition (TGI) was calculated as the greatest treatment response using the following equation: Maximal TGI = (1 − mean tumor volume of the treated group/mean tumor volume of the vehicle control group) × 100. The tumor growth delay (TGD) percentage was determined as the percentage increase of the median time period for the treatment group to reach an arbitrary tumor volume of 1000 mm^3 relative to the vehicle control group. […] A power analysis was conducted using historical data to determine the number of animals required to yield significance of 0.05 at a 30% difference. […] Data from experiments in vivo were analyzed using the student’s t-test for TGI values and the Mann–Whitney U test for TGD using Excel and GraphPad Prism. Fisher’s exact test was used to probe significance of differences in response frequency.

[1] = 3.13 mg/kg QDx1 IV, Day 28, n=8
[2] = 3.13 mg/kg QDx1 IV, SCID-beige mice, Day 21
[3] = 3.13 mg/kg QDx1 IV, SCID-beige mice, Day 23
[4] = 3.13 mg/kg QDx1 IV, SCID-beige mice, Day 23, mean(T)/mean(C)
[5] = 3.13 mg/kg QDx1 IV, SCID-beige mice, Day 23, median(T)/median(C)

Cc1c(Cl)c2c(Cl)c(C)c1-c1c(-c3ccc(F)cc3)sc3ncnc(c13)O[C@@H](C(=O)O)Cc1cc(ccc1OCc1ccnc(-c3ccc(OC[C@H]4COCCO4)cc3)n1)OC[C@@H](CN1CCN(C)CC1)O2 [Compound A-1747745.0]
% T/C (mean) tumor volume Day 26 (3.13 mg/kg QDx1 IV, Day 26, mean(T)/mean(C)): 46.99%
% T/C (median) tumor volume Day 26 (3.13 mg/kg QDx1 IV, Day 26, median(T)/median(C)): 47.41%
Xenograft AMO-1 (DSMZ) tumor volume Day 28, Mean [1]: 1102.63 mm³
Xenograft AMO-1 (DSMZ) tumor volume Day 28, Median [1]: 1024.93 mm³
% T/C (mean) tumor volume Day 28 (3.13 mg/kg QDx1 IV, Day 28, mean(T)/mean(C)): 53.81%
% T/C (median) tumor volume Day 28 (3.13 mg/kg QDx1 IV, Day 28, median(T)/median(C)): 53.13%
Xenograft AMO-1 (DSMZ) tumor volume Day 26, individual animals (3.13 mg/kg QDx1 IV, SCID-beige female mice, Day 26): 859 mm³ and 654 mm³ and 702 mm³ and 664 mm³ and 464 mm³ and 884 mm³ and 882 mm³ and 812 mm³
Xenograft AMO-1 (DSMZ) tumor volume Day 28, individual animals (3.13 mg/kg QDx1 IV, SCID-beige female mice, Day 28): 1383 mm³ and 753 mm³ and 968 mm³ and 881 mm³ and 872 mm³ and 1157 mm³ and 1725 mm³ and 1082 mm³
Xenograft AMO-1 (DSMZ) Day 21, Mean [2]: 316.72 mm³
Xenograft AMO-1 (DSMZ) Day 21, Median [2]: 336.29 mm³
Xenograft AMO-1 (DSMZ) (mm³) Day 21, individual animals (3.13 mg/kg QDx1 IV, SCID-beige mice, Day 21, individual tumor volumes): 248 mm³ and 370 mm³ and 418 mm³ and 238 mm³ and 111 mm³ and 349 mm³ and 477 mm³ and 324 mm³
% T/C (mean), Tumor Volume Day 21 (3.13 mg/kg QDx1 IV, SCID-beige mice, Day 21, mean(T)/mean(C)): 49.55%
% T/C (median), Tumor Volume Day 21 (3.13 mg/kg QDx1 IV, SCID-beige mice, Day 21, median(T)/median(C)): 63.86%
Xenograft AMO-1 (DSMZ) Day 23 Mean [3]: 463.98 mm³
Xenograft AMO-1 (DSMZ) Day 23 Median [3]: 467.27 mm³
Xenograft AMO-1 (DSMZ) (mm³) Day 23, individual animals (3.13 mg/kg QDx1 IV, SCID-beige mice, Day 23, individual tumor volumes): 595 mm³ and 419 mm³ and 553 mm³ and 359 mm³ and 205 mm³ and 462 mm³ and 647 mm³ and 473 mm³
% T/C (mean), body weight Day 23 [4]: 104.12%
% T/C (mean), tumor volume Day 23 [4]: 43.45%
% T/C (median), body weight Day 23 [5]: 104.12%
% T/C (median), tumor volume Day 23 [5]: 48.01%
Xenograft AMO-1 (DSMZ) (mm³) Day 30 (individual animals) (3.13 mg/kg QDx1 IV, Day 30, SCID-beige female mice, tumor volume per animal): 1812 mm³ and 984 mm³ and 1324 mm³ and 1150 mm³ and 1149 mm³ and 1537 mm³ and 1916 mm³ and 1649 mm³
Xenograft AMO-1 (DSMZ) (mm³) Day 30 Mean (3.13 mg/kg QDx1 IV, Day 30, group mean): 1440.23 mm³
Xenograft AMO-1 (DSMZ) (mm³) Day 30 Median (3.13 mg/kg QDx1 IV, Day 30, group median): 1430.49 mm³
Xenograft AMO-1 (DSMZ) (mm³) Day 34 (individual animals) (3.13 mg/kg QDx1 IV, Day 34, SCID-beige female mice, tumor volume per animal): 2874 mm³ and 1660 mm³ and 1699 mm³ and 1719 mm³ and 1802 mm³ and 2605 mm³ and 2742 mm³ and 2768 mm³
Xenograft AMO-1 (DSMZ) (mm³) Day 34 Mean (3.13 mg/kg QDx1 IV, Day 34, group mean): 2233.47 mm³
Xenograft AMO-1 (DSMZ) (mm³) Day 34 Median (3.13 mg/kg QDx1 IV, Day 34, group median): 2203.67 mm³
Mortality Observation Day 34 (3.13 mg/kg QDx1 IV, Day 34, per animal): EUTV
Starting Body Wt. (6.25 mg/kg IV QDx1, AMO-1 xenograft, SCID-beige mice, in g (unit assumed)): 21.625
% Mortality (6.25 mg/kg IV QDx1, clinical observation): 100.00%
Anti-tumor Activity vs. AMO-1 (DSMZ), Mean (6.25 mg/kg IV QDx1, day 13): 216.25
Anti-tumor Activity vs. AMO-1 (DSMZ), Median (6.25 mg/kg IV QDx1, day 13): 216.39
Group Mean, Body Weight (6.25 mg/kg IV QDx1, day 14): 21.63 g
Anti-tumor Activity vs. AMO-1 (DSMZ), Mean (6.25 mg/kg IV QDx1, day 16): 172.06
Anti-tumor Activity vs. AMO-1 (DSMZ), Median (6.25 mg/kg IV QDx1, day 16): 173.79
Anti-tumor Activity vs. AMO-1 (DSMZ), Mean (6.25 mg/kg IV QDx1, day 19): 133.62
Anti-tumor Activity vs. AMO-1 (DSMZ), Median (6.25 mg/kg IV QDx1, day 19): 134.81
Anti-tumor Activity vs. AMO-1 (DSMZ), Mean (6.25 mg/kg IV QDx1, day 21): 175.92
Anti-tumor Activity vs. AMO-1 (DSMZ), Median (6.25 mg/kg IV QDx1, day 21): 202.13
Anti-tumor Activity vs. AMO-1 (DSMZ), Mean (6.25 mg/kg IV QDx1, day 23): 218.85
